Results taken from the NIST ThermoML archive (doi:10.1016/j.jct.2019.05.021).

Assay: xn = mol fraction of the nth substance listed
Details: 100 kPa, Liquid; for viscosity: Falling or rolling sphere viscometry; for mass density: Vibrating tube method

CCCCCCCCCC(=O)OC [methyl decanoate] + CC1CCCCC1
Details	mass density [kg/m3]	viscosity [mPa·s]
293.15 K, x2 = 0	872.25	2.125
293.15 K, x2 = 0.0999	865.57	1.953
293.15 K, x2 = 0.2	858.32	1.783
293.15 K, x2 = 0.3	850.46	1.618
293.15 K, x2 = 0.4001	841.94	1.464
293.15 K, x2 = 0.4998	832.57	1.316
293.15 K, x2 = 0.5999	822.32	1.177
293.15 K, x2 = 0.6999	811	1.051
293.15 K, x2 = 0.8	798.51	0.933
293.15 K, x2 = 0.9	784.68	0.825
298.15 K, x2 = 0	868.16	1.909
298.15 K, x2 = 0.0999	861.49	1.758
298.15 K, x2 = 0.2	854.23	1.613
298.15 K, x2 = 0.3	846.38	1.473
298.15 K, x2 = 0.4001	837.84	1.339
298.15 K, x2 = 0.4998	828.47	1.209
298.15 K, x2 = 0.5999	818.2	1.084
298.15 K, x2 = 0.6999	806.84	0.969
298.15 K, x2 = 0.8	794.31	0.862
298.15 K, x2 = 0.9	780.43	0.765
303.15 K, x2 = 0	864.06	1.738
303.15 K, x2 = 0.0999	857.38	1.603
303.15 K, x2 = 0.2	850.12	1.474
303.15 K, x2 = 0.3	842.25	1.35
303.15 K, x2 = 0.4001	833.72	1.232
303.15 K, x2 = 0.4998	824.32	1.12
303.15 K, x2 = 0.5999	814.03	1.012
303.15 K, x2 = 0.6999	802.63	0.907
303.15 K, x2 = 0.8	790.09	0.807
303.15 K, x2 = 0.9	776.16	0.716
308.15 K, x2 = 0	859.96	1.588
308.15 K, x2 = 0.0999	853.28	1.47
308.15 K, x2 = 0.2	846.01	1.357
308.15 K, x2 = 0.3	838.14	1.247
308.15 K, x2 = 0.4001	829.57	1.142
308.15 K, x2 = 0.4998	820.17	1.038
308.15 K, x2 = 0.5999	809.84	0.937
308.15 K, x2 = 0.6999	798.43	0.843
308.15 K, x2 = 0.8	785.85	0.754
308.15 K, x2 = 0.9	771.88	0.673
313.15 K, x2 = 0	855.85	1.453
313.15 K, x2 = 0.0999	849.16	1.351
313.15 K, x2 = 0.2	841.89	1.251
313.15 K, x2 = 0.3	834.02	1.152
313.15 K, x2 = 0.4001	825.43	1.057
313.15 K, x2 = 0.4998	816.01	0.963
313.15 K, x2 = 0.5999	805.67	0.872
313.15 K, x2 = 0.6999	794.22	0.787
313.15 K, x2 = 0.8	781.6	0.707
313.15 K, x2 = 0.9	767.57	0.631
318.15 K, x2 = 0	851.74	1.341
318.15 K, x2 = 0.0999	845.04	1.252
318.15 K, x2 = 0.2	837.76	1.161
318.15 K, x2 = 0.3	829.87	1.072
318.15 K, x2 = 0.4001	821.28	0.986
318.15 K, x2 = 0.4998	811.84	0.904
318.15 K, x2 = 0.5999	801.47	0.822
318.15 K, x2 = 0.6999	789.99	0.743
318.15 K, x2 = 0.8	777.33	0.668
318.15 K, x2 = 0.9	763.25	0.598
323.15 K, x2 = 0	847.62	1.245
323.15 K, x2 = 0.0999	840.91	1.163
323.15 K, x2 = 0.2	833.62	1.083
323.15 K, x2 = 0.3	825.72	1.003
323.15 K, x2 = 0.4001	817.11	0.925
323.15 K, x2 = 0.4998	807.66	0.847
323.15 K, x2 = 0.5999	797.25	0.772
323.15 K, x2 = 0.6999	785.75	0.7
323.15 K, x2 = 0.8	773.05	0.632
323.15 K, x2 = 0.9	758.92	0.567
